Experimental data published in patent US9212169B2, “Benzimidazole derivative and use thereof” (HYOGO COLLEGE OF MEDICINE, priority 2012, dated 2015).
Read-outs that look alike come from different tables or passages of the source.

How the values were obtained:
[1] = biological target: T1, silkworm recombinant PCA-1 (Homo sapiens, UniProt Q96Q83); test: Evaluation of PCA-1 inhibitory activity (demethylation of 3-methyl cytosine-containing oligo DNA, real-time PCR); assay type: biochemical; conditions: 37° C., 1 hr; for inhibition at 1 µM: test compound 1 μM; for inhibition at 10 µM: test compound 10 μM
T1 construct: made in house; host or cells: silkworm
T1 sequence (Q96Q83 1-286): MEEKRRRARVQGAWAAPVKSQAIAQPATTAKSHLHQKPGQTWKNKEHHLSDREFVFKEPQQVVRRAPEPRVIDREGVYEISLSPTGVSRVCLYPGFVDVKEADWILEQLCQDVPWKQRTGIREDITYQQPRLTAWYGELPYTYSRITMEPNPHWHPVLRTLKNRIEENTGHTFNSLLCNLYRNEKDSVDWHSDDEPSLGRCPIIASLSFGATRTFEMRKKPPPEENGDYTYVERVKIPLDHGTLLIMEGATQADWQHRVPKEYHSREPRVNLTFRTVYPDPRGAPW
Procedure: To an enzyme reaction solution (50 mM trishydrochloric acid buffer (pH 8.0), 2 mM ascorbic acid, 100 μM oxoglutaric acid, 40 μM ferric sulfate) containing 80 fmol 3-methyl cytosine-containing oligo DNA as a substrate were added a test compound (10 μM, 1 μM) and 4 ng silkworm recombinant PCA-1, and the mixture was incubated at 37° C. for 1 hr. After completion of the reaction, the enzyme reaction solution was 20-fold diluted with water to quench the reaction. Using 2 μL thereof, real-time PCR (Bio-Rad iQ SYBR Green Supermix) was performed in a 20 μL reaction system. The analytical curve was formed using a dilution series of the non-methylated oligoDNA. The primers used were forward primer 24 bases and reverse primer 22 bases. Reaction conditions: 95° C., 10 seconds→40 cycles of 95° C., 5 seconds, 61° C., 30 seconds, and 72° C., 15 seconds→95° C., 1 min→55° C., 1 min→55° C., 10 seconds, after which increased by 0.5° C. to 95° C. for 10 seconds→preserved at 25° C.
The degree of demethylation in the presence or absence of the test compound was compared and the inhibitory activity was evaluated.

[2] = tested on: DU145 (prostate cancer cell); test: Cancer cell proliferation suppressive action, DU145 (WST-1); assay type: cell-based; conditions: Homo sapiens, read-out: DU145 proliferation inhibitory activity (%)
Procedure: cell line used: DU145 (prostate cancer cell: Institute of Development, Aging and Cancer, Tohoku University, Cell Resource Center for Biomedical Research)
evaluation of scaffolding dependency growth suppressive action:
The cells were plated on a 96 well plate at 5×10^3 cells/well/90 μL, and cultured overnight. The test compound (10 μM) was added and, after culture for 48 hr, a 1:9 mixture of aqueous 1-methoxy-5-methylphenazinium methylsulfate (PMS) solution and 2-(4-iodophenyl)-3-(4-nitrophenyl)-5-(2,4-disulfophenyl)-2H-tetrazolium, monosodium salt (WST-1)/20 mM 4-(2-hydroxyethyl)-1-piperazineethanesulfonic acid (HEPES) solution (DOJIN) was added by 10 μL, and the absorbance was measured at 450 nm 2 hr later. As a control wavelength, 630 nm was used.

DU145 cell xenograft = test: Antitumor action using prostate cancer xenograft model; assay type: in vivo, BALB/c nu/nu mouse; conditions: subcutaneously administered, suspended in 0.5 w/v % carboxycellulose; tumor volume
Excerpt: A prostate cancer xenograft model was produced as shown below.
DU145 cells (4×10^6 cells) were mixed with BD Matrigel Basememt Membrane Matrix High Concentration (Becton, Dickinson and Company), and subcutaneously transplanted to the back of BALB/c nu/nu mouse. After transplantation, the tumor was isolated when it reached a volume of about 200 mm^3, and subcutaneously transplanted into the back of a different BALB/c nu/nu mouse. This operation was repeated three times to generate a tumor derived from DU145 cells that grow stably. A model mouse for the evaluation of the compound was prepared by finely cutting the in vivo passaged tumor into about 10 mm^3, and subcutaneously transplanting same into the back of a BALB/c nu/nu mouse.
The compound of Example 1 was suspended in 0.5 w/v % sterile carboxycellulose (Wako Pure Chemical Industries, Ltd.), and subcutaneously administered to the back. The volume of the tumor was calculated using the formula of (long diameter)×(short diameter)^2×0.5.

Row | Compound | inhibition at 1 µM [1] [%] | inhibition at 10 µM [1] [%] | inhibition at 10 µM ([2]; DU-145, test compound 10 μM, culture for 48 hr) [%] | antitumor action in a DU145 cell xenograft model (FIG. 1) (DU145 cell xenograft) | inhibition at 10 µM ([2]; DU-145, 48 h) [%]
1 | Cc1ccc2[nH]c(-n3nc(C)c(Cc4ccccc4)c3O)nc2c1 [Example 1, 1-(5-methyl-1H-benzimidazol-2-yl)-3-methyl-4-(phenylmethyl)-1H-pyrazol-5-ol] | 24 | 81 | 60 | antitumor action | 
2 | Cc1nn(-c2nc3cc(Cl)ccc3[nH]2)c(O)c1Cc1ccccc1 [Example 3, 1-(5-chloro-1H-benzimidazol-2-yl)-3-methyl-4-(phenylmethyl)-1H-pyrazol-5-ol] | 21 | 60 |  |  | 
3 | Cc1nn(-c2nc3cc(C(F)(F)F)ccc3[nH]2)c(O)c1Cc1ccccc1 [Example 4, 3-methyl-4-(phenylmethyl)-1-(5-trifluoromethyl-1H-benzimidazol-2-yl)-1H-pyrazol-5-ol] | 50 | 82 |  |  | 
4 | Cc1nn(-c2nc3cc(C(C)(C)C)ccc3[nH]2)c(O)c1Cc1ccccc1 [Example 5, 1-[5-(1,1-dimethylethyl)-1H-benzimidazol-2-yl]-3-methyl-4-(phenylmethyl)-1H-pyrazol-5-ol] | 50 | 91 |  |  | 
5 | Cc1ccc2[nH]c(-n3nc(C)c(Cc4ccc5ccccc5c4)c3O)nc2c1 [Example 11, 3-methyl-1-(5-methyl-1H-benzimidazol-2-yl)-4-(2-naphthylmethyl)-1H-pyrazol-5-ol] | 36 | 82 |  |  | 
6 | Cc1nn(-c2nc3ccccc3[nH]2)c(O)c1C [Example 13] | 19 | 76 |  |  | 22
7 | Cc1nn(-c2nc3ccccc3[nH]2)c(O)c1Cc1ccccc1 [Example 14] | 35 | 80 |  |  | 45
8 | Cc1cc(O)n(-c2nc3ccccc3[nH]2)n1 [Example 15] | -1 | 76 |  |  | 
9 | Cc1ccc2[nH]c(-n3nc(C)c(C)c3O)nc2c1 [Example 17] | 25 | 76 |  |  | 
10 | Cc1nn(-c2nc3ccccc3[nH]2)c(O)c1-c1ccccc1 [Example 18] | 27 | 74 |  |  | 
11 | Cc1nn(-c2nc3ccccc3[nH]2)c(O)c1Cc1ccc2ccccc2c1 [Example 19] | 38 | 76 |  |  | 
12 | Cc1nn(-c2nc3ccccc3[nH]2)c(O)c1Cc1ccc(C(F)(F)F)cc1 [Example 24] | 61 | 67 |  |  | 
13 | Cc1nn(-c2nc3ccccc3[nH]2)c(O)c1Cc1ccc(F)cc1 [Example 25] | 39 | 68 |  |  | 
14 | COc1ccc(Cc2c(C)nn(-c3nc4ccccc4[nH]3)c2O)cc1 [Example 31] | 47 | 85 |  |  | 
15 | Cc1ccc2[nH]c(-n3nc(C)c(Cc4ccc(F)cc4)c3O)nc2c1 [Example 32] | 49 | 81 |  |  | 
16 | Cc1ccc2[nH]c(-n3nc(C)c(Cc4ccccc4Cl)c3O)nc2c1 [Example 33] | 54 | 82 |  |  | 
17 | COc1ccc(Cc2c(C)nn(-c3nc4cc(C)ccc4[nH]3)c2O)cc1 [Example 34] | 49 | 80 |  |  | 
18 | Cc1nn(-c2nc3cc(-c4ccc(Cl)cc4)ccc3[nH]2)c(O)c1Cc1ccccc1 [Example 35] | 25 | 77 |  |  | 
19 | Cc1nn(-c2nc3cc(-c4ccccc4)ccc3[nH]2)c(O)c1Cc1ccccc1 [Example 37] | 38 | 64 |  |  | 
20 | Cc1ccc(-c2ccc3[nH]c(-n4nc(C)c(Cc5ccccc5)c4O)nc3c2)cc1 [Example 40] | 21 | 61 |  |  | 
21 | Cc1ccc2[nH]c(-n3nc(C)c(-c4ccccc4)c3O)nc2c1 [Example 42] | 37 | 65 |  |  | 
22 | CCCCCCc1c(C)nn(-c2nc3cc(C)ccc3[nH]2)c1O [Example 45] | 43 | 81 |  |  | 
23 | Cc1ccc2[nH]c(-n3nc(C)c(CC4CCCCC4)c3O)nc2c1 [Example 46] | 47 | 81 |  |  | 
